This passage reports IC50 results from US20240199546A1, “INHIBITORS OF SOLUTE CARRIER FAMILY 6A MEMBER 19 (SLC6A19) AND METHODS OF USE THEREOF” (Maze Therapeutics, Inc., priority 2022, published 2024).

Structures are written as SMILES.

The first test addresses T1, human SLC6A19 and TMEM27 (Homo sapiens, UniProt Q695T7).
T1 construct: expressed in transfected cells
T1 sequence (Q695T7 1-634): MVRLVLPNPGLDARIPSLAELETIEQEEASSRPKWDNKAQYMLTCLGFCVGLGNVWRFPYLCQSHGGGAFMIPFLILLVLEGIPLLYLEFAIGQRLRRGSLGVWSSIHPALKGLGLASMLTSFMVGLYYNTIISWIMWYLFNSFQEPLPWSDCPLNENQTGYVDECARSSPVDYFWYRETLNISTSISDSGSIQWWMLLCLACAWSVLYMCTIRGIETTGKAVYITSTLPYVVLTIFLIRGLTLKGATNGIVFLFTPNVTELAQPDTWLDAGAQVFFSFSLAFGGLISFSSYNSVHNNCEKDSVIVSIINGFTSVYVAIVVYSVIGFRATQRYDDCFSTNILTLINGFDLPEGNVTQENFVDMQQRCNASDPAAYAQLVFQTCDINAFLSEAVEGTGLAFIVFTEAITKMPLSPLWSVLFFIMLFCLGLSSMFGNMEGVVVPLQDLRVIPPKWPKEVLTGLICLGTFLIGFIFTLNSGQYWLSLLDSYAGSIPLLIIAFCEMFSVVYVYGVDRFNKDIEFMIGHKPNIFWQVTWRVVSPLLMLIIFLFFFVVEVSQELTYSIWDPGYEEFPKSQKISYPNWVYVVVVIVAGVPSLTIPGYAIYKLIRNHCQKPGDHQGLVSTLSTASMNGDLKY
T1 sequence (Q9HBJ8 15-222 partner): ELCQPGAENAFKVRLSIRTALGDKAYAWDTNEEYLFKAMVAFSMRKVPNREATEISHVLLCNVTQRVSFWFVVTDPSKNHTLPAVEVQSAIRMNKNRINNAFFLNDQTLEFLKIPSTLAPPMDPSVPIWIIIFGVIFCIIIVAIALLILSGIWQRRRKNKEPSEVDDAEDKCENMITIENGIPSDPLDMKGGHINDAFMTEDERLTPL
As to the kind of experiment: 13C6,15N-isoleucine uptake in CHO cells with doxycycline-inducible expression of human SLC6A19 and TMEM27, RapidFire mass spectrometry (Example B-2). The class given is cell-based. Particulars: read-out: SLC6A19_RapidFire Uptake Assay IC50. As to the method: Assay ready vials of CHO cells with doxycycline inducible expression of human SLC6A19 and TMEM27 were thawed, plated in T175 flasks containing DMEM/F12 media, 10% FBS, 1% Penicillin-Streptomycin, 1× UltraGlutamate, 1 mM Sodium Pyruvate, Sodium Bicarbonate (7.5 mL of 7.5% solution in 500 mL media final), 5 μg/mL Blasticidin, 150 μg/mL Hygromycin B Gold, and 500 μg/mL G418, and incubated (humidified, 37° C. with 5% CO2) for 48 hours. Media was then removed, flasks were washed with 20 mL of DPBS, and 5 mL of TrypLE™ Express was added to each flask to initiate cell dissociation. After 5 minutes, 10 mL of cell culture media was added to each flask and mixed. The cell suspension was collected and centrifuged for 5 minutes at 200×g. The supernatant was removed, and the pellet was resuspended in 10 mL of cell culture media. Resuspended cells were counted using a Vi-Cell. 30 μL/well (20,000 cells/well) of cell suspension was added to Poly-D-Lysine 384-well black/clear plates. Plates were incubated (humidified, 37° C. with 5% CO2) for 24 hours. To induce expression of human SLC6A19 and TMEM27, 10 μL of assay culture media containing 4 μg/mL doxycycline was added to each well. Assay plates were then incubated (humidified, 37° C. with 5% CO2) overnight. After incubation, the media was removed, and wells were washed 3 times with 40 μL of warmed DPBS. Next, 10 μL of warmed assay buffer (137 mM NaCl, 5 mM KCl, 1 mM CaCl2), 1 mM MgCl2, 10 mM HEPES, 10 mM glucose, pH 7.2) was added to each well. 10 μL/well of test compound or positive control compound to define 0% activity (i.e., 100% inhibition), was then added into each well. All compounds were plated in a duplicate 10-point dilution series that consisted of 2-fold dilutions. The plates were incubated (humidified, 37° C. with 5% C2) with compound for 20 minutes. Afterwards, 20 μL/well of 2 mM 13C6,15N-1-isoleucine was added to each well and plates were incubated again (humidified, 37° C. with 5% C02) for another 20 minutes. Assay buffer was then removed, and plates were washed. 70 μL/well of stop solution (75% acetonitrile, 25% HPLC grade water, 250 nM 1-leucine-1-13C (RapidFire standard)) was added to each well. The plates were sealed and then placed in a −20° C. freezer for 20 minutes. The plates were thawed at room temperature for 20 minutes and then centrifuge for 20 minutes at 3000 rpm. Using an ABSciex API4000 mass spectrometer, processed samples were loaded onto the graphitic carbon SPE-column. The time for aspiration, load/wash, elution and re-equilibration time was 600, 1500, 3000 and 500 milliseconds, respectively. Peak areas were calculated using RapidFire Integrator software.
`CC1(C(=O)NCc2cc3ccc([C@@H]4C[C@H]4c4ccccc4)cc3[nH]2)CC1` (racemic) [Compound 154, trans-1-methyl-N-((6-(2-phenylcyclopropyl)-1H-indol-2-yl)methyl)cyclopropane-1-carboxamide]: the IC50 turned out to be 1360 nM. On the same count and under the same terms, with `CCC(=O)NCc1cc2ccc(NCc3ccccc3)cc2[nH]1` [Compound 1, N-((6-(benzylamino)-1H-indol-2-yl)methyl)propionamide] the figure was 5540 nM; with `CN(Cc1ccccc1)c1ccc2cc(CNC(=O)C3(C)CC3)[nH]c2c1` [Compound 2, N-((6-(benzyl(methyl)amino)-1H-indol-2-yl)methyl)-1-methylcyclopropane-1-carboxamide], 992 nM; with `CC1(C(=O)NCc2cc3ccc(NCc4ccccc4)cc3[nH]2)CC1` [Compound 3, N-((6-(benzylamino)-1H-indol-2-yl)methyl)-1-methylcyclopropanecarboxamide], 504 nM.

As for `CC1(C(=O)NCc2cc3ccc(NCc4ccccn4)cc3[nH]2)CC1` [Compound 4, 1-methyl-N-((6-((pyridin-2-ylmethyl)amino)-1H-indol-2-yl)methyl)cyclopropane-1-carboxamide], the IC50 stood at 1830 nM. Still for that read-out and setting: with `CC1(C(=O)NCc2cc3ccc(OCc4ccccc4)cc3[nH]2)CC1` [Compound 5, N-((6-(benzyloxy)-1H-indol-2-yl)methyl)-1-methylcyclopropanecarboxamide] the figure was 53 nM; with `CC1(C(=O)NCc2cc3cc(F)c(OCc4cocn4)cc3[nH]2)CC1` [Compound 7, N-((5-fluoro-6-(oxazol-4-ylmethoxy)-1H-indol-2-yl)methyl)-1-methylcyclopropane-1-carboxamide], 225 nM; with `CC1(C(=O)NCc2cc3cc(F)c(OCc4cncs4)cc3[nH]2)CC1` [Compound 9, N-((5-fluoro-6-(thiazol-5-ylmethoxy)-1H-indol-2-yl)methyl)-1-methylcyclopropane-1-carboxamide], 271 nM.

On to `Cc1cc2cc(CNC(=O)C3(C)CC3)[nH]c2cc1OCc1ccon1` [Compound 10, N-((6-(isoxazol-3-ylmethoxy)-5-methyl-1H-indol-2-yl)methyl)-1-methylcyclopropane-1-carboxamide], for which the IC50 was 130 nM. The same measure, in the same setting: next, `CC1(C(=O)NCc2cc3ccc(OCc4ccon4)cc3[nH]2)CC1` [Compound 20, N-((6-(isoxazol-3-ylmethoxy)-1H-indol-2-yl)methyl)-1-methylcyclopropane-1-carboxamide]: 168 nM; `Cc1ccc(COc2cc3[nH]c(CNC(=O)C4(C)CC4)cc3cc2Cl)cn1` [Compound 37, N-((5-chloro-6-((6-methylpyridin-3-yl)methoxy)-1H-indol-2-yl)methyl)-1-methylcyclopropane-1-carboxamide]: 625 nM. For the compound `CC1(C(=O)NCc2cc3cc(Cl)c(OCc4ccsn4)cc3[nH]2)CC1` [Compound 38, N-((5-chloro-6-(isothiazol-3-ylmethoxy)-1H-indol-2-yl)methyl)-1-methylcyclopropane-1-carboxamide], the IC50 is 44 nM. Still for that read-out and setting: with `CC1(C(=O)NCc2cc3cc(Cl)c(OCc4cccnc4)cc3[nH]2)CC1` [Compound 39, N-((5-chloro-6-(pyridin-3-ylmethoxy)-1H-indol-2-yl)methyl)-1-methylcyclopropane-1-carboxamide] the figure was 370 nM; with `CC1(C(=O)NCc2cc3cc(Cl)c(OCc4nccs4)cc3[nH]2)CC1` [Compound 40, N-((5-chloro-6-(thiazol-2-ylmethoxy)-1H-indol-2-yl)methyl)-1-methylcyclopropane-1-carboxamide], 64 nM.

The target of the next test is T1, human SLC6A19 and TMEM27. As to the kind of experiment: Radiolabelled (3H) leucine uptake in CHO cells with doxycycline-inducible expression of human SLC6A19 and TMEM27 (Example B-1). Particulars: CHO cells with doxycycline-inducible expression of human SLC6A19 and TMEM27, read-out: SLC6A19_Radioligand Uptake Assay IC50. The class given is cell-based. The method, boiled down:
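CHO cells were induced with doxycycline for 18 h at 37 °C, washed in HBSS, then exposed to compounds for 1 h: 8-point, 3-fold dilutions in duplicate, 0.5% DMSO final. Uptake measured by scintillation counting after 2 h shaking. Activity normalized with positive control as 0% and DMSO as 100%.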
Regarding `CC1(C(=O)NCc2cc3cc(-c4ccno4)c(OCc4cscn4)cc3[nH]2)CC1` [Compound 660, N-((5-(isoxazol-5-yl)-6-(thiazol-4-ylmethoxy)-1H-indol-2-yl)methyl)-1-methylcyclopropane-1-carboxamide], the IC50 stood at 1580 nM. Still for that read-out and setting: next, `CC1(C(=O)NCc2cc3cc(-c4cnco4)c(OCc4cscn4)cc3[nH]2)CC1` [Compound 661, 1-methyl-N-((5-(oxazol-5-yl)-6-(thiazol-4-ylmethoxy)-1H-indol-2-yl)methyl)cyclopropane-1-carboxamide]: 1000 nM; `Cc1cc(COc2cc3[nH]c(CNC(=O)C(F)(F)F)cc3cc2Cl)on1` [Compound 662, N-((5-chloro-6-((3-methylisoxazol-5-yl)methoxy)-1H-indol-2-yl)methyl)-2,2,2-trifluoroacetamide]: 123 nM; `[2H]C([2H])([2H])c1cc(COc2cc3[nH]c(CNC(=O)C4(C)CC4)cc3cc2Cl)no1` [Compound 663, N-((5-chloro-6-((5-(methyl-d3)isoxazol-3-yl)methoxy)-1H-indol-2-yl)methyl)-1-methylcyclopropane-1-carboxamide]: 134 nM.

Regarding `[2H]C([2H])([2H])c1cc(COc2cc3[nH]c(CNC(=O)C4(C)CC4)cc3cc2F)no1` [Compound 664, N-((5-fluoro-6-((5-(methyl-d3)isoxazol-3-yl)methoxy)-1H-indol-2-yl)methyl)-1-methylcyclopropane-1-carboxamide], the IC50 worked out at 187 nM.

Take `Cc1cc(COc2cc3[nH]c(CNC(=O)[C@@H]4C[C@@H](F)CN4)cc3cc2Cl)on1` [Compound 665, (2S,4R)—N-((5-chloro-6-((3-methylisoxazol-5-yl)methoxy)-1H-indol-2-yl)methyl)-4-fluoropyrrolidine-2-carboxamide]: the IC50 is 1560 nM. Still for that read-out and setting: with `Cc1cc(COc2cc3[nH]c(CNC(=O)[C@@H]4CC(F)(F)CN4)cc3cc2Cl)on1` [Compound 666, (S)-N-((5-chloro-6-((3-methylisoxazol-5-yl)methoxy)-1H-indol-2-yl)methyl)-4,4-difluoropyrrolidine-2-carboxamide] the figure was 2990 nM. For `Cc1cc(COc2cc3[nH]c(CNC(=O)[C@@H]4C[C@@H](F)CN4C)cc3cc2Cl)on1` [Compound 667, (2S,4R)—N-((5-chloro-6-((3-methylisoxazol-5-yl)methoxy)-1H-indol-2-yl)methyl)-4-fluoro-1-methylpyrrolidine-2-carboxamide], the IC50 came to 524 nM. Still for that read-out and setting: next, `Cc1cc(COc2cc3[nH]c(CNC(=O)[C@@H]4CC(F)(F)CN4C)cc3cc2Cl)on1` [Compound 668, (S)-N-((5-chloro-6-((3-methylisoxazol-5-yl)methoxy)-1H-indol-2-yl)methyl)-4,4-difluoro-1-methylpyrrolidine-2-carboxamide]: 1150 nM.
